In PubChem BioAssay (NCI) one finds TGI and GI50 data, which are given here for 17 compounds.

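Following 48 hours of exposure in 96-well plates, responses at five concentrations were used to interpolate endpoints linearly. GI50 = concentration required for 50% inhibition of growth. TGI is the concentration that stops growth completely.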 Where only a bound is given, the exact number is not on record here.

Among the test systems are 786-0 renal; CAKI-1 renal; EKVX NSCLC; HOP-62 NSCLC; M14 melanoma; NCI-H460 lung; SK-MEL-28 melanoma; SW-620 colon; TK-10 renal; SF-295 CNS.
What all share (experiment): NCI-60 cell line screen, 48 h

As to `O=C(O)CNS(=O)(=O)c1ccc(NCc2ccccc2)cc1`, the TGI in the assay with 786-0 renal, with CAKI-1 renal, in the assay with EKVX NSCLC, in the assay on HOP-62 NSCLC, with M14 melanoma and in the assay with NCI-H460 lung was > 100 µM in each case. For the same compound, the TGI in the assay on SK-MEL-28 melanoma, with SW-620 colon and in the assay on TK-10 renal was > 100 µM each time.

`COc1ccc(/C=C/CN(C)CCc2ccccc2)cc1OC`: the TGI with 786-0 renal, in the assay with EKVX NSCLC, in the assay on SF-295 CNS, in the assay with SK-MEL-28 melanoma, in the assay with SW-620 colon and with TK-10 renal was > 100 µM in each case.

Turning to `C/C(CC(=O)Nc1cc(Cl)c(Cl)cc1Cl)=N\NC(N)=O`, the TGI in the assay with 786-0 renal, with EKVX NSCLC, with HOP-62 NSCLC, in the assay on M14 melanoma, with SF-295 CNS and with SK-MEL-28 melanoma was > 100 µM each time. The TGI in the assay on SW-620 colon and in the assay on TK-10 renal was > 100 µM each time.

Consider `CCN(CC)c1ccc(/C=C/c2ccc3cc(C)ccc3[n+]2CC)cc1`, for which the GI50 with 786-0 renal was 0.295 µM; with CAKI-1 renal, 2.03 µM; in the assay with EKVX NSCLC, 0.0787 µM; with HOP-62 NSCLC, 0.158 µM; in the assay with M14 melanoma it was 0.182 µM; in the assay with SF-295 CNS, 0.0658 µM. Moreover, the GI50 in the assay with SK-MEL-28 melanoma is 0.279 µM; with SW-620 colon, 0.229 µM; in the assay with TK-10 renal, 0.146 µM. The TGI came to 6.46 µM in the assay with 786-0 renal; 12 µM in the assay with CAKI-1 renal; 13.2 µM in the assay on EKVX NSCLC; 6.21 µM with HOP-62 NSCLC; 1.63 µM in the assay on M14 melanoma; 0.864 µM with SF-295 CNS. Besides, the figures for the TGI in the assay with SK-MEL-28 melanoma, with SW-620 colon and with TK-10 renal were 2.19 µM, 15.6 µM and 11.8 µM, respectively.

For the compound `COc1ccc(/C(COc2c(-c3ccccc3)oc3ccccc3c2=O)=N\O)cc1`, the GI50 with 786-0 renal is 40.6 µM; in the assay with EKVX NSCLC it was 14.2 µM; with HOP-62 NSCLC, 49.6 µM; in the assay on M14 melanoma, 28.3 µM; with NCI-H460 lung, 12.3 µM; with SK-MEL-28 melanoma, 15 µM. Further, the GI50 is 19.5 µM in the assay with SW-620 colon and 10.2 µM with TK-10 renal. For the same compound, the TGI was > 50 µM in the assay on 786-0 renal; > 50 µM in the assay with EKVX NSCLC; > 50 µM in the assay on HOP-62 NSCLC; > 50 µM in the assay on M14 melanoma; 39.6 µM with NCI-H460 lung; > 50 µM in the assay with SK-MEL-28 melanoma. In addition, the figures for the TGI with SW-620 colon and with TK-10 renal were > 50 µM and 26.2 µM, respectively.

With `Nc1nc(Cl)c2ncn(Cc3ccc(C45CC6CC(CC(C6)C4)C5)c(O)c3)c2n1`, the GI50 in the assay on 786-0 renal was 6.04 µM; in the assay on CAKI-1 renal it was 1.77 µM; in the assay with EKVX NSCLC it was 2.99 µM; in the assay on HOP-62 NSCLC, 1.85 µM; in the assay with NCI-H460 lung it was 4.03 µM; with SF-295 CNS it was 3.29 µM. Besides, the GI50 was 10.6 µM with SK-MEL-28 melanoma, 2.95 µM in the assay on SW-620 colon and 2.2 µM in the assay with TK-10 renal. Further, the TGI in the assay with 786-0 renal was 20 µM; in the assay with CAKI-1 renal, 4.8 µM; with EKVX NSCLC, 21.8 µM; in the assay on HOP-62 NSCLC it was 3.77 µM; in the assay on NCI-H460 lung, 15.6 µM; with SF-295 CNS, 17.4 µM. For the same compound, the TGI with SK-MEL-28 melanoma was 25.9 µM; with SW-620 colon it was 13.3 µM; in the assay with TK-10 renal, 8.93 µM.

Regarding `COc1ccc(-c2cnnc3c(-c4cccc(C(F)(F)F)c4)cnn23)cc1`, the GI50 with 786-0 renal was 2.76 µM; in the assay with CAKI-1 renal, 3.3 µM; in the assay with EKVX NSCLC, 3.41 µM; with HOP-62 NSCLC it was 2.72 µM; with M14 melanoma, > 100 µM; in the assay with NCI-H460 lung it was 4.67 µM. Also, the GI50 in the assay on SK-MEL-28 melanoma is 3.14 µM; with SW-620 colon, > 100 µM. The TGI in the assay on 786-0 renal is > 100 µM; in the assay on CAKI-1 renal it was > 100 µM; in the assay on EKVX NSCLC it was > 100 µM; in the assay with HOP-62 NSCLC, 13.1 µM; in the assay with M14 melanoma it was > 100 µM; with NCI-H460 lung, > 100 µM. Moreover, the TGI in the assay on SK-MEL-28 melanoma and in the assay on SW-620 colon was > 100 µM in each case.

Regarding `O=C1O[C@@H](c2ccc3c(c2)OCO3)C2C(=O)O[C@@H](c3ccc4c(c3)OCO4)C12` (some centres undefined), the TGI in the assay with 786-0 renal, with EKVX NSCLC, in the assay with HOP-62 NSCLC, with M14 melanoma, with NCI-H460 lung and in the assay with SF-295 CNS was > 100 µM throughout. Also, the TGI with SK-MEL-28 melanoma, in the assay with SW-620 colon and in the assay with TK-10 renal was > 100 µM throughout.

With `O=C1CCC2(c3ccc(F)cc3)Nc3cc(Cl)ccc3N12` (centres undefined), the TGI in the assay with 786-0 renal, with EKVX NSCLC, with HOP-62 NSCLC, in the assay on M14 melanoma, with SF-295 CNS and in the assay with SK-MEL-28 melanoma was > 100 µM in each case. Further, in the assay with SW-620 colon, the TGI is > 100 µM.

With `COC(=O)c1c/c(=N\NC(=O)CC(=O)Nc2ccccc2OC)c2ccccc2o1`, the TGI in the assay on 786-0 renal, with CAKI-1 renal, in the assay on EKVX NSCLC, with HOP-62 NSCLC, in the assay on M14 melanoma and with NCI-H460 lung was > 100 µM each time. Moreover, the TGI in the assay with SK-MEL-28 melanoma, in the assay with SW-620 colon and with TK-10 renal was > 100 µM each time.

With `O=c1c2cc([N+](=O)[O-])ccc2sc2ccsc12`, the TGI in the assay with 786-0 renal, with EKVX NSCLC, in the assay on HOP-62 NSCLC, in the assay on M14 melanoma, in the assay with NCI-H460 lung and in the assay with SF-295 CNS was > 100 µM each time. In addition, the TGI in the assay on SK-MEL-28 melanoma and in the assay on SW-620 colon was > 100 µM throughout.

Take `CCC(C)c1c(Cl)nc(Cl)nc1Cl` (centres undefined): the TGI with 786-0 renal was determined as 30 µM; in the assay with EKVX NSCLC it was 48.8 µM; in the assay with HOP-62 NSCLC, 16 µM; in the assay on M14 melanoma, 3.43 µM; with NCI-H460 lung it was 34.2 µM; in the assay on SF-295 CNS, 42.2 µM. The TGI with SK-MEL-28 melanoma is 22.5 µM; in the assay with SW-620 colon, > 100 µM; with TK-10 renal, 41.3 µM.

`CC(C)(C)OC(=O)N1CCc2c(sc3ncnc(N/N=C/c4cccc5ccccc45)c23)C1`: the GI50 in the assay with 786-0 renal is 4.83 µM; with CAKI-1 renal it was 3.35 µM; in the assay on EKVX NSCLC, 3.64 µM; in the assay with HOP-62 NSCLC, 3.79 µM; in the assay on NCI-H460 lung, 3.29 µM; in the assay on SF-295 CNS, 3.72 µM. Besides, the GI50 with SK-MEL-28 melanoma was 7.78 µM; in the assay on SW-620 colon it was 3.87 µM; with TK-10 renal, 5.89 µM. Besides, the TGI with 786-0 renal is > 100 µM; with CAKI-1 renal it was > 100 µM; in the assay on EKVX NSCLC, > 100 µM; with HOP-62 NSCLC, > 100 µM; in the assay with NCI-H460 lung it was 12.7 µM; with SF-295 CNS it was 66.8 µM. Further, the TGI with SK-MEL-28 melanoma, in the assay on SW-620 colon and in the assay on TK-10 renal was > 100 µM in each case.

`O=C1C2c3[nH]c4ccccc4c3C3CCCCCCC3C2C(=O)N1c1ccccc1` (centres undefined): the TGI in the assay on 786-0 renal is 26.5 µM; with EKVX NSCLC, > 100 µM; in the assay on M14 melanoma, 42.5 µM; in the assay with NCI-H460 lung it was 18.6 µM; in the assay with SF-295 CNS it was 12.8 µM; with SK-MEL-28 melanoma, 43.7 µM. The TGI with SW-620 colon amounted to 29.8 µM; in the assay with TK-10 renal, 27 µM.

For `CS(=O)(=O)c1ccc([C@H]2O[C@@H](CO)C[C@]2(O)c2ccc(S(C)(=O)=O)cc2)cc1`, the GI50 with 786-0 renal, in the assay on CAKI-1 renal, with EKVX NSCLC, in the assay on HOP-62 NSCLC, in the assay with NCI-H460 lung and with SF-295 CNS was > 100 µM in each case. In addition, the GI50 in the assay with SK-MEL-28 melanoma, with SW-620 colon and in the assay with TK-10 renal was > 100 µM throughout. Further, the TGI in the assay on 786-0 renal, with CAKI-1 renal, in the assay on EKVX NSCLC, with HOP-62 NSCLC, with NCI-H460 lung and with SF-295 CNS was > 100 µM in each case. Further, the TGI in the assay on SK-MEL-28 melanoma, with SW-620 colon and with TK-10 renal was > 100 µM throughout.

As to `C/C(CC(=O)Nc1ccc(C)cc1C)=N/N=C(N)N`, the TGI in the assay with 786-0 renal, in the assay on EKVX NSCLC, with HOP-62 NSCLC, in the assay with M14 melanoma, in the assay on NCI-H460 lung and in the assay with SF-295 CNS was > 100 µM each time. Besides, the TGI in the assay with SK-MEL-28 melanoma, with SW-620 colon and in the assay on TK-10 renal was > 100 µM each time.

For `O=C1CCCCN1CCCCC#Cc1ccccc1C#Cc1ccc([N+](=O)[O-])cc1`, the GI50 in the assay on 786-0 renal was 8.41 µM; with CAKI-1 renal, 2.93 µM; with EKVX NSCLC, 5.26 µM; in the assay on HOP-62 NSCLC it was 8.01 µM; in the assay on M14 melanoma it was 5.16 µM; in the assay with NCI-H460 lung, 2 µM. Besides, the GI50 was 10.5 µM in the assay on SK-MEL-28 melanoma, 5.18 µM in the assay with SW-620 colon and 7.72 µM in the assay on TK-10 renal. The TGI in the assay on 786-0 renal turned out to be 79 µM; with CAKI-1 renal, 15 µM; in the assay on EKVX NSCLC, 40 µM; in the assay on HOP-62 NSCLC, 22.5 µM; with M14 melanoma, 19.3 µM; in the assay with NCI-H460 lung, 4.35 µM. Besides, the TGI was 22.4 µM in the assay with SK-MEL-28 melanoma, 18.3 µM in the assay on SW-620 colon and 30.5 µM in the assay on TK-10 renal.
